Each structure is given as a SMILES string.

Assay [1] concerns the target T1, nicotinic acetylcholine receptor (Torpedo nAChR, α2βγδ), α subunit (Tetronarce californica, UniProt P02710+P02712+P02714+P02718). In words: [3H]PCP radioligand displacement, centrifugation assay. The class given is binding.
Assay [2] has as its target T1, nicotinic acetylcholine receptor (Torpedo nAChR, α2βγδ), α subunit. In words: [3H]PCP radioligand displacement. The class given is binding. On the technique in general: In a radioligand displacement assay an active substance lowers the binding of a labelled ligand.

T1 sequence (P02710 25-461): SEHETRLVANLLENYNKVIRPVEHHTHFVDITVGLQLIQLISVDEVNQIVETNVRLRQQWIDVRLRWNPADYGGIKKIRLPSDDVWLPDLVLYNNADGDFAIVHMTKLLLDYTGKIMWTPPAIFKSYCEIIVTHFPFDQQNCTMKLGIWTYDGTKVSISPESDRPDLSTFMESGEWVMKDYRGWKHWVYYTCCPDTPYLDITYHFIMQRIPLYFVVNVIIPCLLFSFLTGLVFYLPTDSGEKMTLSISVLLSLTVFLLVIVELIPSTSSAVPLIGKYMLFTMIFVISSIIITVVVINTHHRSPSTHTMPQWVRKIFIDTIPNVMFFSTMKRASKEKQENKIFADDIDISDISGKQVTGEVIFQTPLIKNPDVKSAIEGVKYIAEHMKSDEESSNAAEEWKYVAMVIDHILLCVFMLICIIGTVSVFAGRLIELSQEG
T1 sequence (P02712 25-493): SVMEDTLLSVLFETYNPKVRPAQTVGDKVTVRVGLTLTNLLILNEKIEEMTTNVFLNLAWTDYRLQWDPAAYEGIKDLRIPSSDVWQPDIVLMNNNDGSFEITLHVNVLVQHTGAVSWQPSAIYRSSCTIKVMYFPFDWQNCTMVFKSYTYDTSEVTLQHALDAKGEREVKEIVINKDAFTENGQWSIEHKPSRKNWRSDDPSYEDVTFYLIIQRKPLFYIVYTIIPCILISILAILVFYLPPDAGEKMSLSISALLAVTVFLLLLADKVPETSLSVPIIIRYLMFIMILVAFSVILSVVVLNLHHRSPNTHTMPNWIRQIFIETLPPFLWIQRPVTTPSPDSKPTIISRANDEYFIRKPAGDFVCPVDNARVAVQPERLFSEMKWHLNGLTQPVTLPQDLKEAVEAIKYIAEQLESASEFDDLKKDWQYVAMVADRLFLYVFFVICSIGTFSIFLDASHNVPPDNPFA
T1 sequence (P02714 18-506): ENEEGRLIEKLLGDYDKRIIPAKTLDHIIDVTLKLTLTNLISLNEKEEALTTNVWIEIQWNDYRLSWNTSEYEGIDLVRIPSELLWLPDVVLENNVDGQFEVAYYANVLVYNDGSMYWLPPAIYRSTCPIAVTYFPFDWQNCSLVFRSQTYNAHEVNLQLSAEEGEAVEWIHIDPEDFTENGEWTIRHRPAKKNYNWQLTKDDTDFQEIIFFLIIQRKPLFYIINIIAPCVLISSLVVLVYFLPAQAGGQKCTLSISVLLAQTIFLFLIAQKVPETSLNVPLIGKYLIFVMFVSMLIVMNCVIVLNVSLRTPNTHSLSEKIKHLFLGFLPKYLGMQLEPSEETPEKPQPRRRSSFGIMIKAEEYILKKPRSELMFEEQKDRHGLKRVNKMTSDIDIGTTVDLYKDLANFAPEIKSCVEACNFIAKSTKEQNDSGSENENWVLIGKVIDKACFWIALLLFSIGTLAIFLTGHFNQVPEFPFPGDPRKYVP
T1 sequence (P02718 22-522): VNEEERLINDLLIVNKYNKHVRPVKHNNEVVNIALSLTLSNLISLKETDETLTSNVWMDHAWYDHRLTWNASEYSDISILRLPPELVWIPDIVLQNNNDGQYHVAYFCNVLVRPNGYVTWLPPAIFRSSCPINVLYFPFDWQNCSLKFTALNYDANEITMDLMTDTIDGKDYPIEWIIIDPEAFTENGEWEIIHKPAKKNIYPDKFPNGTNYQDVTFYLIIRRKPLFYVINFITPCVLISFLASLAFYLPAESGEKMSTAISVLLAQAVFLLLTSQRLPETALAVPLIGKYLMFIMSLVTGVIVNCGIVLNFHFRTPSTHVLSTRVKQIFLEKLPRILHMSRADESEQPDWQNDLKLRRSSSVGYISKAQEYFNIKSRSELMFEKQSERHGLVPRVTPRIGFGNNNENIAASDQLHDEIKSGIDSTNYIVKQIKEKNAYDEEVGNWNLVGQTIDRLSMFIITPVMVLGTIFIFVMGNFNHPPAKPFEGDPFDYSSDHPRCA

Take `CN(C)CCCN1c2ccccc2Sc2ccccc21` [promazine]: the IC50 in assay [1] was found to be 3.5 ± 0.2 µM.
In turn, `CN(C)CCCN1c2ccccc2Sc2ccc(Cl)cc21` [CPZ, chlorpromazine] yielded an IC50 in assay [2] of 2.3 ± 0.4 µM.
In assay [1], `CN(C)CCCN1c2ccccc2[S+]([O-])c2ccc(Cl)cc21` (stereo not drawn) [CPZsulfoxide, chlorpromazine sulfoxide] registered an IC50 of 69 ± 6 µM.

A word on the IC50: it is the point on the concentration scale where inhibition reaches its midpoint. Higher therefore signals weaker potency.

Values taken from article PMC2878666 (Biochemistry, 2009).
